Tested on: CT26 syngenic subcutaneous colon cancer model
Test: Antitumor activity of MBS8 micelles in combination with doxorubicin or doxil in the CT26 model
Type: in vivo, mice
Details: mono chemotherapy 4 mg/kg i.v. q4d x3
Description: Randomisation of mice and treatment started when tumors reached an average volume of 100 mm^3 (Day 0). […] All drugs were administered by intravenous bolus. Doxorubicin or doxil were given q4d, total of 3 injections. […] Growth of tumors was measured twice a week.

COc1cccc2c1C(=O)c1c(O)c3c(c(O)c1C2=O)C[C@@](O)(C(=O)CO)C[C@@H]3O[C@H]1C[C@H](N)[C@H](O)[C@H](C)O1 [doxorubicin]
complete responders: no complete responders

From patent US20240197759A1, “IMMUNE STIMULATING NANOPARTICLE COMPOSITION” (DANMARKS TEKNISKE UNIVERSITET, priority 2021, published 2024)
